Assay [1] deals with NIH-3T3 cells. Description: qHTS cell viability (CellTiter-Glo, 72 h; primary screen), control cell line. It is filed as cell-based, mouse.
In assay [2] the test system is MCC cell lines (WAGA, MKL-1, MKL-2, MCC13, MCC26, UISO). Description: qHTS cell viability, all six MCC cell lines as a group (mean AUC, MCC.avg). It is filed as cell-based, human. For orientation: Quantitative high-throughput screening tests each substance at several concentrations.
Assay [3] concerns VP-MCC cell lines (WAGA, MKL-1, MKL-2). Description: qHTS cell viability, VP-MCC cell lines as a group (mean AUC, VP.MCC.avg). It is filed as cell-based, human.
Assay [4] concerns six MCC cell lines and four control cell lines. In words: qHTS cell viability, all 10 cell lines screened. It is filed as cell-based.
Assay [5] concerns control cell lines (HACAT, HEK293T, CRL-7250, NIH-3T3). Description: qHTS cell viability, control cell lines as a group (mean AUC, Control.avg). It is filed as cell-based.
Assay [6] relates to UISO cells (VN-MCC). In words: qHTS cell viability (CellTiter-Glo, 72 h; primary and follow-up small molecule screen). It is filed as cell-based, human.
Assay [7] relates to MKL-2 cells (VP-MCC). Described as above. It is filed as cell-based, human.
Assay [8] relates to MCC13 cells (VN-MCC). Described as above. It is filed as cell-based, human.
The subject of assay [9] is MKL-1 cells (VP-MCC). Described as above. It is filed as cell-based, human.
For assay [10], the system named is HEK293T cells. In words: qHTS cell viability (CellTiter-Glo, 72 h; primary screen), control cell line. In kind it is cell-based, human.
For assay [11], the system named is WAGA cells (VP-MCC). In words: qHTS cell viability (CellTiter-Glo, 72 h; primary and follow-up small molecule screen). In kind it is cell-based, human.
Assay [12] concerns HACAT cells. Description: qHTS cell viability (CellTiter-Glo, 72 h; primary screen), control cell line. It is filed as cell-based, human.
Assay [13] deals with CRL-7250 cells. The description is as above. In kind it is cell-based.
For assay [14], the system named is VN-MCC cell lines (MCC13, MCC26, UISO). Description: qHTS cell viability, VN-MCC cell lines as a group (mean AUC, VN.MCC.avg). It is filed as cell-based, human.
For assay [15], the system named is MCC26 cells (VN-MCC). In words: qHTS cell viability (CellTiter-Glo, 72 h; primary and follow-up small molecule screen). In kind it is cell-based, human.
The mark [16] stands for this setting: primary high-throughput screen, viability 72 h, n = 1.

Values joined by “and” are separate entries in the source; they are usually repeats but may differ in a detail not shown here. Identical values can stand only once. Counter-ions that a name gives are not always drawn. Like-named read-outs stand apart in the source and are kept apart here.

As for `COc1cc(CCN)c(OC)cc1Br.Cl`, the NIH3T3_AUC in assay [1] stood at 468.152. Moreover, the MCC_Avg_AUC in [2] is recorded as 400.883. In assay [3], this molecule displayed a Control-VP-MCC of 51.4501 and a VP-MCC_Avg_AUC of 402.781. This molecule displayed a Control-MCC in [4] of 53.3472. For the same molecule, the Control_Avg_AUC in [5] is recorded as 454.231. In assay [6], this molecule displayed a UISO_AUC of 386.993. The MKL2_AUC in assay [7] worked out at 390.615. The molecule further registered an MCC13_AUC in assay [8] of 402.391. Also, the MKL1_AUC in [9] was found to be 396.289. Also, in [10], the HEK293T_AUC stood at 422.838. In addition, the WAGA_AUC in [11] is 421.438 and 421.439. Besides, the HACAT_AUC in assay [12] is given as 486.493. The CRL7250_AUC in assay [13] is reported as 439.439. In assay [14], this molecule registered a Control-VN-MCC of 55.2444 and a VN-MCC_Avg_AUC of 398.986. The MCC26_AUC in assay [15] is 407.575.

For `CCc1c2c(nc3ccc(OC(=O)N4CCC(N5CCCCC5)CC4)cc13)-c1cc3c(c(=O)n1C2)COC(=O)[C@]3(O)CC.Cl` [Irinotecan hydrochloride], the Control-VP-MCC in assay [3] is recorded as 114.533. For the same molecule, the Control-MCC in assay [4] came out at 69.4165. This molecule also returned a Control-VN-MCC in assay [14] of 24.3005.

Regarding `CCOC(=O)N1CCC(=C2c3ccc(Cl)cc3CCc3cccnc32)CC1` [Loratadine], the Control-VP-MCC in assay [3] (NPC library, therapeutic window: Control avg AUC minus VP-MCC avg AUC) was 67.0216. In assay [4] (NPC library, therapeutic window: Control avg AUC minus MCC avg AUC), this molecule registered a Control-MCC of 51.602. This molecule returned a Control-VN-MCC in assay [14] (NPC library, therapeutic window: Control avg AUC minus VN-MCC avg AUC) of 36.1824.

In assay [3], `CCC(=O)C(CC(C)N(C)C)(c1ccccc1)c1ccccc1` (centres unmarked) [Methadone hydrochloride] gave a Control-VP-MCC of 55.4471. Moreover, the Control-MCC in assay [4] worked out at 49.7335. The Control-VN-MCC in [14] stood at 44.0199.

As to `CN1CC[C@]23c4c5ccc(O)c4O[C@H]2[C@@H](O)C=C[C@H]3[C@H]1C5` [Morphine sulfate pentahydrate], the results for the Control-MCC in [2] and in assay [4] were 52.6315 and 52.6314, respectively. In assay [3], this molecule displayed a Control-VP-MCC of 53.1007. Besides, in assay [14], the Control-VN-MCC was found to be 52.1622.

Regarding `CCOc1cc(N)c(Cl)cc1C(=O)NCC1CN(Cc2ccc(F)cc2)CCO1` (centres unmarked) [Mosapride citrate], the NIH3T3_AUC in assay [1] (area under the dose-response curve, NIH3T3 control cells, AUC<450 = reduced viability) is listed as 470.089. The UISO_AUC in assay [6] (area under the dose-response curve, UISO cells, AUC<450 = reduced viability) was 489.758. In addition, the MKL2_AUC in assay [7] (area under the dose-response curve, MKL-2 cells, AUC<450 = reduced viability) is recorded as 377.067. Also, the MCC13_AUC in assay [8] (area under the dose-response curve, MCC13 cells, AUC<450 = reduced viability) was found to be 479.818. Also, in assay [9] (area under the dose-response curve, MKL-1 cells, AUC<450 = reduced viability), the MKL1_AUC is recorded as 438.77. This molecule also displayed an HEK293T_AUC in assay [10] (area under the dose-response curve, HEK293T control cells, AUC<450 = reduced viability) of 457.079. This molecule showed a WAGA_AUC in [11] (area under the dose-response curve, WAGA cells, AUC<450 = reduced viability) of 443.892. Besides, the HACAT_AUC in assay [12] (area under the dose-response curve, HACAT control cells, AUC<450 = reduced viability) came to 473.779. The CRL7250_AUC in assay [13] (area under the dose-response curve, CRL7250 control cells, AUC<450 = reduced viability) came to 480.736. The MCC26_AUC in [15] (area under the dose-response curve, MCC26 cells, AUC<450 = reduced viability) is on record as 466.055.

Regarding `c1cc(-c2sc(-c3ccncc3)c(-c3ccncc3)c2-c2ccncc2)ccn1` [NSC-75503, reference compound], in [1] (setting [16]), the “Area under the dose-response curve (AUC) NIH3T3” value is reported as 481.5. Besides, the “Area under the dose-response curve (AUC) UISO” value in assay [6] (setting [16]) is on record as 456.0. Moreover, the “Area under the dose-response curve (AUC) MKL-2” value in [7] (setting [16]) was 550.2. In addition, the “Area under the dose-response curve (AUC) MCC13” value in assay [8] (setting [16]) was 492.9. Further, in [9] (setting [16]), the “Area under the dose-response curve (AUC) MKL-1” value turned out to be 478.1. The “Area under the dose-response curve (AUC) HEK293T” value in [10] (setting [16]) was 450.5. In addition, in assay [11] (setting [16]), the “Area under the dose-response curve (AUC) WAGA” value was 489.4. Moreover, the “Area under the dose-response curve (AUC) HACAT” value in [12] (setting [16]) came out at 453.3. The “Area under the dose-response curve (AUC) CRL7250” value in [13] (setting [16]) turned out to be 461.0. The “Area under the dose-response curve (AUC) MCC26” value in assay [15] (setting [16]) is 468.9.

The record behind these values is publication PMC11822212, “High-throughput screening identifies Aurora kinase B as a critical therapeutic target for Merkel cell carcinoma” (Nature Communications, 2025).
